{
  "source": "patent US20050033056A1",
  "about": "“Hydroxylated indole derivatives and uses thereof” (priority 2001, published 2005)",
  "key": {"CYP2E1": {"target": "T1, CYP2E1 (Homo sapiens, UniProt P05181)", "T1 construct": "tissue Gentest Corp. (Woburn, Mass.); host or cells: pooled human liver microsomes", "T1 sequence (P05181 whole entry)": "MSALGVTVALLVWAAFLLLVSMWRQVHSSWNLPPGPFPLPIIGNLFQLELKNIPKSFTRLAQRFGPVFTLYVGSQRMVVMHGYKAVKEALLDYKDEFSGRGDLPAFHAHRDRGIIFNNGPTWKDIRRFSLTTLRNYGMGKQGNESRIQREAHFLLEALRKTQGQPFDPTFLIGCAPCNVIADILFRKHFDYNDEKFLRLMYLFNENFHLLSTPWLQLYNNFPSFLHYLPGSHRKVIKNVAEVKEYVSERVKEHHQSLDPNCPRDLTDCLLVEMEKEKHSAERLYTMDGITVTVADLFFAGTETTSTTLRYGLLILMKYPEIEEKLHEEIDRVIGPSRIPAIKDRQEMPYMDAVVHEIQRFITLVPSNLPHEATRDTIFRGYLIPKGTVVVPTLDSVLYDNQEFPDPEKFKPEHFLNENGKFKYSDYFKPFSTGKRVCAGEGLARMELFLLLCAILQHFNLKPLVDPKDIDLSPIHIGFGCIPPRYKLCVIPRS", "test": "CYP inhibition in HLM: chlorzoxazone 6-hydroxylation", "format": "in vitro ADME", "details": "10 or 50 μM", "procedure": "The incubations were carried out in test tubes (12.0×75 mm). The incubation mixtures (250 μL) contained 0.5 mg of HLM protein, 50 (CYP1A2 and CYP2E1) or 25 (CYP2C9, CYP2C19, CYP2D6 and CYP3A4) pmol of recombinant human CYPs, Compound 1 (10 or 50 μM), probe substrate (R—, S-warfarin, chlorzoxazone, S-mephenyloin, or bufuralol) at different concentrations, and 0.5 mg of NADPH in 50 mM Tris buffer containing 15 mM MgCl2 (pH 7.4). Compound 1 was added to the reaction mixture 5 minutes prior to the addition of the probe substrate. […]\nThe quantification was based on the calibration curves, and the quality control (QC) samples were applied to ensure the quality of the experiments. […]\n2. […] 6-hydroxychlorzoxazone was monitored by UV at 280 nm.\nData were acquired and analyzed by ChemStation (Version 6.03, Hewlett Packard, Waldbronn, Germany) for 6-, 7-, and 10-hydroxywarfarin and 6-hydroxychlorzoxazone, and MacQuan (Version 1.6, PE Biosystem, Foster City, Calif.) for 1′-hydroxybufuralol and 4′-hydroxymephenytoin. Quantification was based on peak area ratios of metabolites over the respective IS against the respective concentration of the metabolites. […] The metabolic rates were determined using Excel (Microsoft Office 97, Microsoft Corporation, Redmond, Wash.) or SigmaPlot (Version 6.00, SPSS Inc. Chicago, Ill.). […]"}, "CYP1A1/2": {"test_system": "CYP1A1/2", "test": "CYP induction in primary human hepatocytes, Western immunoblotting: CYP1A1/2", "format": "cell-based", "details": "10 or 50 μM for 72 hours; hepatocytes from three donors", "procedure": "Upon receiving a primary culture of human hepatocytes in 6-well plates, the culture medium containing streptomycin/penicillin was refreshed (2 ml/well). […] Compound 1 stock solution was added to the culture medium at a 1:400 ratio (v/v). The culture medium and testing compounds were replenished every 24 hours.\nAt the end of the treatment, the cells were harvested into 1 mL of phosphate-buffered saline (PBS) after washing twice. The cells were precipitated by centrifugation, and were resuspended in PBS (approximately 50 μL). The sample preparation, after mixing with […] of Laemmli buffer (62.5 mM Tris-HCl containing 2% SDS, 25% glycerol, and 0.01% bromophenol, pH 6.8) and being rocked for 2-4 hours, was mixed with 10 μL of 2-mercaptoethanol, and heated at 90° C. for 10 minutes before electrophoresis.\nProteins were resolved in a 12% SDS-PAGE gel using a mini gel apparatus at a constant voltage ([…]) for 70-80 minutes, and transferred onto a polyvinylidene difluoride (PVDF) membrane using a membrane-transferring unit at a constant voltage ([…]) for 60 minutes. The membrane was blocked by 5% non-fat dried milk (NFDM) blotting buffer (PBS containing 0.05% Tween 20) at 4° C. overnight. […] CYP proteins were detected by […] using an X-ray developer."}},
  "data": [
    {"smiles": "CNC(=O)Cc1ccc2ccn(C3CCN(CCc4ccccc4F)CC3)c2c1", "note": "[Compound 1, N-methyl-[1-[1-(2-fluorophenethyl)piperidine-4-yl]-1H-indol-6-yl] acetamide]", "values": [
      {"measurement": "inhibitory effect on CYP2E1 activity (in words)", "setting": "CYP2E1", "result": "no inhibitory effect"},
      {"measurement": "expression of CYP1A1/2 (Western immunoblotting)", "setting": "CYP1A1/2", "result": "did not increase"}
    ]}
  ]
}
